# Results taken from PubChem BioAssay AID687005 (Broad Institute, 2013).
# Results filed as inconclusive are left out. The source made the active and inactive calls.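 Rule for the calls: active = Compounds that reduce signal, with fitted half-maximal dose at or under twice the top valid tested dose; inconclusive = Poor fit, or flat curve losing 30 to 70% of signal; inactive = Potency past limit, flat within 30%, or opposite direction.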
# Assay: viability loss in HEK293T cells – cell-based, ATP luminescence, cherry-pick samples, cytotoxicity control, dose response (AID 687005)
# Conditions: HEK293T viability, ATP luminescence (CellTiter-Glo), 48 h; at 21 µM (top of the series)
row,Structure (SMILES),"activity change, negative = cytotoxicity"
1,Cc1ccc(S(=O)(=O)N[C@@H]2CCCN(Cc3cccc(OCCO)c3)C2)cc1,0.167% (inactive)

# Same assay, conditions: HEK293T viability, ATP luminescence (CellTiter-Glo), 48 h; at 23.5 µM (top of the series)
row,Structure (SMILES),"activity change, negative = cytotoxicity"
1,C[C@@H]1CCCCO[C@@H](CN(C)Cc2ccc(C(F)(F)F)cc2)[C@@H](C)CN([C@@H](C)CO)C(=O)c2cc(NS(=O)(=O)c3cn(C)cn3)ccc2O1,-31.2% (inactive)
2,C[C@@H]1CN([C@H](C)CO)C(=O)c2cc(NC(=O)Nc3cccc4ccccc34)ccc2O[C@H]1CN(C)C(=O)Nc1ccc(C(F)(F)F)cc1,-31% (inactive)
3,CC(C)NC(=O)Nc1ccc2c(c1)CC(=O)N([C@H](C)CO)C[C@H](C)[C@H](CN(C)S(=O)(=O)c1ccc(Cl)cc1)O2,39.4% (inactive)
4,CCC(=O)N1[C@H](CO)[C@@H](c2ccc(-c3cccnc3)cc2)[C@@H]1CN(C)C(C)=O,3.73% (inactive)
5,Cc1cc(C(=O)Nc2cccc3c2O[C@@H](CN(C)S(=O)(=O)c2ccccc2)[C@@H](C)CN([C@@H](C)CO)C3=O)n(C)n1,-20.3% (inactive)

# Same assay, conditions: HEK293T viability, ATP luminescence (CellTiter-Glo), 48 h; at 26 µM (top of the series)
row,Structure (SMILES),"activity change, negative = cytotoxicity"
1,Cc1cccc(-c2ccc([C@H]3[C@H](CO)N4CCCCN(C(=O)c5ccc6c(c5)OCO6)C[C@@H]34)cc2)c1,70.3% (inactive)
2,CN1[C@H](C(=O)N2CCc3ccccc3C2)[C@@H](CO)[C@@H]2Cn3c(ccc(-c4cccnc4)c3=O)[C@@H]21,7.82% (inactive)
3,Cc1ccc(N(C(=O)C2CCC(=O)N2)C2(C(=O)NC3CCCC3)CCCCC2)cc1 (configuration not stated),-43.5% (inactive)
4,Cc1ccc(S(=O)(=O)N[C@H]2CC[C@H](CCNC(=O)C3CCCC3)O[C@@H]2CO)cc1,-7.25% (inactive)
5,C[C@H](CO)N1C[C@H](C)[C@H](CN(C)C(=O)NC2CCCCC2)OCCCC[C@H](C)Oc2ccc(NS(=O)(=O)c3cn(C)cn3)cc2C1=O,3.14% (inactive)
6,C[C@H]1CN([C@@H](C)CO)C(=O)c2cc(C#CC3(O)CCCC3)cnc2O[C@@H]1CN(C)Cc1cccnc1,13.8% (inactive)
7,CC(C)NC(=O)Nc1cccc2c1O[C@H](CN(C)C)[C@H](C)CN([C@@H](C)CO)C2=O,22% (inactive)
8,CCC(=O)N(C)C[C@@H]1Oc2cc(C#CC(C)(C)O)ccc2S(=O)(=O)N([C@@H](C)CO)C[C@H]1C,-26.1% (inactive)
9,C[C@H](CO)N1C[C@H](C)[C@H](CN(C)C(=O)NC2CCCCC2)OCCCC[C@H](C)Oc2ccc(NC(=O)C3CCCCC3)cc2C1=O,15% (inactive)
10,O=C(CN1CCOCC1)N1CC[C@@H]2[C@@H](CO)Nc3ccc(-c4ccccc4F)cc3[C@@H]21,29% (inactive)
11,CCCNC(=O)Nc1ccc2c(c1)C(=O)N(C)C[C@@H](OC)[C@@H](C)CN(C(=O)CC)[C@H](C)CO2,-2.92% (inactive)
12,CO[C@@H]1CN(C)C(=O)c2ccc(NC(=O)C3CC3)cc2OC[C@H](C)N(Cc2ccc(F)cc2)C[C@H]1C,-10.4% (inactive)
13,COc1ccc(NC(=O)N(C)C[C@@H]2OCCCC[C@H](C)Oc3ccc(NC(=O)Nc4ccc5c(c4)OCO5)cc3C(=O)N([C@H](C)CO)C[C@@H]2C)cc1,4.66% (inactive)
14,CNC(=O)C[C@H]1CC[C@H]2[C@@H](COc3ccc(NC(=O)Nc4cccc(C#N)c4)cc3C(=O)N2C)O1,23.1% (inactive)
15,C[C@@H]1CN([C@@H](C)CO)C(=O)c2cc(NS(=O)(=O)c3cn(C)cn3)ccc2O[C@@H](C)CCCCO[C@H]1CN(C)C,-1.98% (inactive)
16,COCC(=O)NC[C@H]1N[C@H](CO)[C@@H]1c1ccc(C2=CCCC2)cc1,16.1% (inactive)
17,COCC(=O)N(C)C[C@H]1Oc2ncc(-c3ccccc3F)cc2C(=O)N([C@@H](C)CO)C[C@H]1C,-32.3% (inactive)
18,COCC#Cc1cnc2c(c1)C(=O)N([C@H](C)CO)C[C@H](C)[C@H](CN(C)C(=O)C1CC1)O2,-5.58% (inactive)
19,C[C@H](CO)N1C[C@H](C)[C@H](CN(C)C(=O)Nc2cccc(F)c2)Oc2ncc(C#CCN(C)C)cc2C1=O,-20.2% (inactive)
20,COCC(=O)N(C)C[C@@H]1Oc2ncc(C#CCC3CCCC3)cc2C(=O)N([C@H](C)CO)C[C@H]1C,57.2% (inactive)
21,CC=Cc1ccc2n(c1=O)C[C@@H]1[C@@H](CO)[C@H](C(=O)NCc3ccc4c(c3)OCO4)[C@H]2N1C(=O)C1CC1 (mixture of isomers),-8.54% (inactive)
22,CNC[C@@H]1Oc2ccc(NS(=O)(=O)c3ccc(Cl)cc3)cc2C(=O)N([C@H](C)CO)C[C@H]1C,45.6% (inactive)
23,O=C(CSc1ncnc2c1cnn2-c1ccccc1)NC1CCS(=O)(=O)C1 (configuration not stated),5% (inactive)
24,COc1ccc(NC(=S)NCc2ccc(Cl)cc2)c(OC)c1,0.916% (inactive)
25,CO[C@H]1CN(C)C(=O)c2cc(NC(=O)C3CC3)ccc2OC[C@@H](C)N(Cc2cncnc2)C[C@H]1C,-23.3% (inactive)
26,Cc1ccc(CSc2ncnc3c2cnn3-c2ccc(C)cc2)cc1,-28.8% (inactive)
27,O=C(NC(=S)Nc1ccccc1N1CCOCC1)c1ccccc1F,-0.484% (inactive)

row,Structure (SMILES),"activity change, negative = cytotoxicity"
1,Cc1cccc(C)c1NC(=O)C(CCc1ccccc1)N1CCC(c2ccccc2)CC1 (configuration not stated),-63.1% (inactive)
2,COc1ccc(NC(=O)N(C)C[C@H]2OCCCC[C@@H](C)Oc3ccc(NC(=O)c4ccccc4)cc3C(=O)N([C@@H](C)CO)C[C@H]2C)cc1,7.8% (inactive)
3,CC(C)NC(=O)N(C)C[C@H]1OCCCC[C@H](C)Oc2ccc(NC(=O)c3ccccc3)cc2C(=O)N([C@@H](C)CO)C[C@@H]1C,55.3% (inactive)
4,CN(C[C@H]1N[C@@H](CO)[C@H]1c1ccc(-c2cccc(F)c2)cc1)S(C)(=O)=O,61.6% (inactive)
5,C[C@@H](O)C#Cc1ccc([C@@H]2[C@H](CO)N3CCCCN(CC4CC4)C[C@@H]23)cc1,-28.3% (inactive)
6,COCC(=O)NC[C@@H]1N[C@@H](CO)[C@H]1c1ccc(C2=CCCC2)cc1,26.4% (inactive)
7,COc1ccc(NC(=O)N(C)C[C@H]2OCCCC[C@H](C)Oc3ccc(NC(=O)C4CCCCC4)cc3C(=O)N([C@@H](C)CO)C[C@@H]2C)cc1,-27.2% (inactive)
8,Cc1noc(C)c1NC(=O)Nc1ccc2c(c1)C(=O)N([C@H](C)CO)C[C@@H](C)[C@H](CN(C)C(=O)Nc1ccc(F)cc1)OCCCC[C@@H](C)O2,-26.1% (inactive)
9,CC(C)NC(=O)Nc1ccc2c(c1)CC(=O)N([C@H](C)CO)C[C@H](C)[C@@H](CN(C)C(=O)Nc1ccc3c(c1)OCO3)O2,31.9% (inactive)
10,O=C(C[C@@H]1CC[C@@H]2[C@H](COC[C@H](O)CN2Cc2cccc(C(F)(F)F)c2)O1)NCc1ccc(Cl)cc1,9.32% (inactive)
11,C[C@H](CO)N1C[C@H](C)[C@H](CN(C)S(=O)(=O)c2ccccc2)Oc2ccc(NS(=O)(=O)c3ccc(F)cc3)cc2C1=O,-25.5% (inactive)
12,C[C@H]1CCCCO[C@H](CN(C)C(=O)c2ccncc2)[C@@H](C)CN([C@@H](C)CO)C(=O)c2cc(NC(=O)Cc3ccccc3)ccc2O1,-3.36% (inactive)
13,O=C(C[C@@H]1CC[C@H](NC(=O)Cc2ccccn2)[C@@H](CO)O1)NCCc1ccccc1,-8.35% (inactive)
14,COc1cccc(NC(=O)CN2CCN(S(=O)(=O)c3ccc(C(C)C)cc3)CC2)c1,35.1% (inactive)
15,CNC[C@H]1Oc2c(NS(=O)(=O)c3cccs3)cccc2C(=O)N([C@H](C)CO)C[C@@H]1C,-26.9% (inactive)
16,CCC(=O)N[C@H]1C=C[C@H](CC(=O)NCC2CCCCC2)O[C@@H]1CO,35.4% (inactive)
17,CCOC(=O)CSc1ncnc2c1cnn2-c1ccc(Cl)cc1,0.015% (inactive)
18,CCCC(=O)Nc1ccc2c(c1)C(=O)N(C)C[C@H](OC)[C@@H](C)CN(C(=O)c1cccnc1)[C@@H](C)CO2,4.75% (inactive)
19,CC(C)NC(=O)Nc1ccc2c(c1)C(=O)N([C@H](C)CO)C[C@@H](C)[C@H](CN(C)C(=O)Nc1ccccc1)OCCCC[C@@H](C)O2,37.7% (inactive)
20,CO[C@H]1CN(C)C(=O)c2cc(NS(=O)(=O)c3ccc(C)cc3)ccc2OC[C@@H](C)N(C(=O)NC(C)C)C[C@@H]1C,26.2% (inactive)
21,CCC(C)(NC=O)C(=O)Nc1c(C)cccc1C (configuration not stated),-37.8% (inactive)
22,CO[C@@H]1CN(C)C(=O)c2ccc(NC(=O)NC(C)C)cc2OC[C@H](C)NC[C@@H]1C,-4.93% (inactive)
23,Cc1ccc(S(=O)(=O)N(C)C[C@@H]2Oc3ncc(Br)cc3C(=O)N([C@@H](C)CO)C[C@H]2C)cc1,-14.6% (inactive)
24,COCC(=O)N(C)C[C@@H]1Oc2ncc(C#CCC3CCCC3)cc2C(=O)N([C@@H](C)CO)C[C@H]1C,1.81% (inactive)
25,C[C@@H]1CN([C@@H](C)CO)C(=O)c2cc(NC(=O)Nc3ccccc3)ccc2O[C@@H]1CN(C)C(=O)Nc1cccc2ccccc12,203% (inactive)
26,CC=Cc1ccc2n(c1=O)C[C@@H]1[C@@H](CO)[C@H](C(=O)N3CCCCC3)N(Cc3ccccc3)[C@H]21 (mixture of isomers),11.7% (inactive)
27,C[C@H]1CN([C@@H](C)CO)C(=O)c2cccc(NS(=O)(=O)c3ccc(Cl)cc3)c2O[C@@H]1CN(C)CC1CC1,18% (inactive)

# Same assay, conditions: HEK293T viability, ATP luminescence (CellTiter-Glo), 48 h; at 28.5 µM (top of the series)
row,Structure (SMILES),"activity change, negative = cytotoxicity"
1,Cc1ccc(N(CC(N)=O)S(=O)(=O)c2ccc(F)cc2)cc1,-28% (inactive)

# Same assay, conditions: HEK293T viability, ATP luminescence (CellTiter-Glo), 48 h; at 38 µM (top of the series)
row,Structure (SMILES),"activity change, negative = cytotoxicity"
1,CC(C)C(=O)N1CCC1(C)C(=O)Nc1ccccc1C(C)(C)C (configuration not stated),-4.57% (inactive)
